Measured values as given in patent US4803266A, “3-Oxoalkylidene-2-azetidinone derivatives” (Taisho Pharmaceutical Co., Ltd., priority 1986, dated 1989).

Assays:
[1] = tested on: blood platelet aggregation; assay: Blood platelet aggregation inhibition in vitro in rabbit PRP, ADP induced; type: cell-based, male, New Zealand strain house rabbit; details: Oryctolagus cuniculus, ADP final concentration 5 μM, 37° C., 3 minutes preincubation, 50% inhibition of maximum aggregation rate
Description: (§1) Citrated blood (one volume of 3.2% sodium citrate; 9 volumes of blood) was collected from carotid artery of male, New Zealand strain house rabbit, centrifuged at 150 g for 15 minutes to give platelet rich plasma (PRP) as a supernatant, and the remaining blood was centrifuged at 1500 g for 10 minutes to give platelet poor plasma (PPP) as a supernatant. The platelet count of PRP was adjusted to 50-60×10^4 /μl by dilution of PPP. Blood platelet aggregation was carried out according to the method of Born [Born, G. V. R., Nature, 194, 927 (1962)]. Namely, 25 μl of the test drug, (all the test drugs were dissolved in dimethyl sulfoxide and adjusted to the desired concentration with physiological saline solution), was added to 250 μl of PRP, and the mixture was incubated at 37° C. for 3 minutes. 25 μl of the aggregation inducing substance [adenosine diphosphate (ADP); final concentration 5 μM or collagen: final concentration 5 μg/ml] was added, the mixture was measured for 5 minutes by blood platelet aggregation ability measurement apparatus (Aggricoda TM-PA-3210, Kyoto Dai-ichi Kagaku) to obtain the maximum aggregation rate, and there was calculated the concentration of the test drug (ICP50) which brings about 50% inhibition to the maximum aggregation rate obtained by adding the aggregation inducing substance to PRP containing the solvent only.
(§2) The compound numbers in Table 1 correspond to those in the Examples described below.

[2] = tested on: blood platelet aggregation; assay: Blood platelet aggregation inhibition in vitro in rabbit PRP, collagen induced; type: cell-based, male, New Zealand strain house rabbit; details: Oryctolagus cuniculus, collagen final concentration 5 μg/ml, 37° C., 3 minutes preincubation, 50% inhibition of maximum aggregation rate
Description: as §1, §2

| SMILES | IC50 [1] [µM] | IC50 [2] [µM] |
| --- | --- | --- |
| CC(=O)/C=C1/C(=O)N(c2ccccc2)C1c1ccccc1 (stereo not drawn) [Compound 1, (E)-3-(2-oxopropylidene)-1,4-diphenyl-2-azetidinone] | 33 | 14 |
| CCC(=O)/C=C1/C(=O)N(c2ccccc2)C1c1ccccc1 (stereo not drawn) [Compound 2] | 28 | 32 |
| O=C(/C=C1/C(=O)N(c2ccccc2)C1c1ccccc1)c1ccccc1 (stereo not drawn) [Compound 4] | 13 | 16 |
| Cc1ccc(C(=O)/C=C2/C(=O)N(c3ccccc3)C2c2ccccc2)cc1 (stereo not drawn) [Compound 5] | 24 | 23.5 |
| COc1ccc(C(=O)/C=C2/C(=O)N(c3ccccc3)C2c2ccccc2)cc1 (stereo not drawn) [Compound 6] | 24 | 18 |
| COc1ccc(C(=O)/C=C2/C(=O)N(c3ccccc3)C2c2ccccc2)c(OC)c1 (stereo not drawn) [Compound 7] | 12 | 23 |
| O=C(/C=C1/C(=O)N(c2ccccc2)C1c1ccccc1)c1ccc(F)cc1 (stereo not drawn) [Compound 8] | 9.2 | 13.6 |
| O=C(/C=C1/C(=O)N(c2ccccc2)C1c1ccccc1)c1ccc(Cl)cc1 (stereo not drawn) [Compound 9] | 15 | 12 |
| O=C(/C=C1/C(=O)N(c2ccccc2)C1c1ccccc1)c1ccc(Br)cc1 (stereo not drawn) [Compound 10] | 36 | 26 |
| O=C(/C=C1/C(=O)N(c2ccccc2)C1c1ccccc1)c1ccc(-c2ccccc2)cc1 (stereo not drawn) [Compound 11] | > 30 | 22 |
| O=C(/C=C1/C(=O)N(c2ccccc2)C1c1ccccc1)c1ccc([N+](=O)[O-])cc1 (stereo not drawn) [Compound 12] | 5.6 | 4.7 |
| CCOC(=O)CC(=O)/C=C1/C(=O)N(c2ccccc2)C1c1ccccc1 (stereo not drawn) [Compound 15] | 21.5 | 16.6 |
| COc1ccc(C(=O)/C=C2/C(=O)N(c3ccccc3C)C2c2ccccc2)cc1 (stereo not drawn) [Compound 16] | 12.5 | 4.1 |
| Cc1ccccc1N1C(=O)/C(=C/C(=O)c2ccc(F)cc2)C1c1ccccc1 (stereo not drawn) [Compound 17] | 7.7 | 5 |
| Cc1ccccc1N1C(=O)/C(=C/C(=O)c2ccc([N+](=O)[O-])cc2)C1c1ccccc1 (stereo not drawn) [Compound 18] | 6.6 | 3.2 |
| Cc1ccc(C(=O)/C=C2/C(=O)N(c3ccc(Cl)cc3C)C2c2ccccc2)cc1 (stereo not drawn) [Compound 21] | 30.9 |  |
| COc1ccc(C(=O)/C=C2/C(=O)N(c3ccc(Cl)cc3C)C2c2ccccc2)cc1 (stereo not drawn) [Compound 22] | 41.3 |  |
| Cc1cc(Cl)ccc1N1C(=O)/C(=C/C(=O)c2ccc([N+](=O)[O-])cc2)C1c1ccccc1 (stereo not drawn) [Compound 24] | 6.4 |  |
| CC(=O)/C=C1/C(=O)N(c2cc(Cl)ccc2C)C1c1ccccc1 (stereo not drawn) [Compound 25] | 11.1 | 6.6 |
| Cc1ccc(Cl)cc1N1C(=O)/C(=C/C(=O)c2ccccc2)C1c1ccccc1 (stereo not drawn) [Compound 26] | 16.5 | 9.5 |

| SMILES | IC50 [1] [µM] | IC50 [2] [µM] |
| --- | --- | --- |
| O=C(/C=C1/C(=O)N(c2ccc(F)cc2)C1c1ccccc1)c1ccccc1 (stereo not drawn) [Compound 29] | 9 | 8.1 |
| O=C(/C=C1/C(=O)N(c2ccc(F)cc2)C1c1ccccc1)c1ccc([N+](=O)[O-])cc1 (stereo not drawn) [Compound 32] | 3.5 | 3.8 |
| O=C(/C=C1/C(=O)N(c2ccccc2F)C1c1ccccc1)c1ccc(F)cc1 (stereo not drawn) [Compound 33] | 11.9 | 12.5 |
| O=C(/C=C1/C(=O)N(c2ccccc2F)C1c1ccccc1)c1ccc([N+](=O)[O-])cc1 (stereo not drawn) [Compound 34] | 8.2 | 6.6 |
| O=C(/C=C1/C(=O)N(c2cc(Cl)cc(Cl)c2)C1c1ccccc1)c1ccc(F)cc1 (stereo not drawn) [Compound 37] | 21.2 | 17.8 |
| O=C(/C=C1/C(=O)N(c2cc(Cl)cc(Cl)c2)C1c1ccccc1)c1ccc([N+](=O)[O-])cc1 (stereo not drawn) [Compound 38] | 9 | 4.6 |
| COc1ccc(C(=O)/C=C2/C(=O)N(c3ccc(Br)cc3)C2c2ccccc2)cc1 (stereo not drawn) [Compound 39] | > 30 | > 30 |
| O=C(/C=C1/C(=O)N(c2ccc(Br)cc2)C1c1ccccc1)c1ccc(F)cc1 (stereo not drawn) [Compound 40] | 11.3 | 13.2 |
| O=C(/C=C1/C(=O)N(c2ccc(Br)cc2)C1c1ccccc1)c1ccc([N+](=O)[O-])cc1 (stereo not drawn) [Compound 41] | 4.2 | 5.1 |
| O=C(/C=C1/C(=O)N(c2cccc(C(F)(F)F)c2)C1c1ccccc1)c1ccccc1 (stereo not drawn) [Compound 43] | 14 | 7.7 |
| O=C(/C=C1/C(=O)N(c2cccc(C(F)(F)F)c2)C1c1ccccc1)c1ccc(F)cc1 (stereo not drawn) [Compound 44] | 10.3 | 7.3 |
| O=C(/C=C1/C(=O)N(c2cccc(C(F)(F)F)c2)C1c1ccccc1)c1ccc([N+](=O)[O-])cc1 (stereo not drawn) [Compound 45] | 4.4 | 5.2 |
| O=C(/C=C1/C(=O)N(Cc2ccccc2)C1c1ccccc1)c1ccc(F)cc1 (stereo not drawn) [Compound 52] | 7.9 |  |
| O=C(/C=C1/C(=O)N(Cc2ccccc2)C1c1ccccc1)c1ccc([N+](=O)[O-])cc1 (stereo not drawn) [Compound 53] | 4.9 |  |
| CC(=O)/C=C1/C(=O)N(Cc2ccccc2Cl)C1c1ccccc1 (stereo not drawn) [Compound 54] | 11.2 | 15.5 |
| O=C(/C=C1/C(=O)N(Cc2ccccc2Cl)C1c1ccccc1)c1ccc(F)cc1 (stereo not drawn) [Compound 55] | 10.5 | 8.3 |
| O=C(/C=C1/C(=O)N(Cc2ccccc2Cl)C1c1ccccc1)c1ccc([N+](=O)[O-])cc1 (stereo not drawn) [Compound 56] | 2.9 | 6.5 |
| CCc1ccc(C2/C(=C\C(=O)c3ccc(F)cc3)C(=O)N2c2ccccc2C)cc1 (stereo not drawn) [Compound 67] | 27.7 | 11 |
| CCc1ccc(C2/C(=C\C(=O)c3ccc([N+](=O)[O-])cc3)C(=O)N2c2ccccc2C)cc1 (stereo not drawn) [Compound 68] | 13.6 | 7.5 |
| O=C(/C=C1/C(=O)N(c2ccccc2)C1c1ccc(O)cc1)c1ccc([N+](=O)[O-])cc1 (stereo not drawn) [Compound 75] | 3.8 | 5.4 |

| SMILES | IC50 [1] [µM] | IC50 [2] [µM] |
| --- | --- | --- |
| O=C(/C=C1/C(=O)N(c2ccccc2)C1c1ccc(F)cc1)c1ccc(F)cc1 (stereo not drawn) [Compound 76] | 14.3 | 10.5 |
| O=C(/C=C1/C(=O)N(c2ccccc2)C1c1ccc(F)cc1)c1ccc([N+](=O)[O-])cc1 (stereo not drawn) [Compound 77] | 4.3 | 2.9 |
| Cc1ccccc1N1C(=O)/C(=C/C(=O)c2ccc(F)cc2)C1c1ccc(F)cc1 (stereo not drawn) [Compound 78] | 6.2 | 8.3 |
| Cc1ccccc1N1C(=O)/C(=C/C(=O)c2ccc([N+](=O)[O-])cc2)C1c1ccc(F)cc1 (stereo not drawn) [Compound 79] | 4.3 | 5.1 |
| O=C(/C=C1/C(=O)N(c2ccccc2)C1c1ccccc1F)c1ccc(F)cc1 (stereo not drawn) [Compound 80] | 7.4 | 10.9 |
| O=C(/C=C1/C(=O)N(c2ccccc2)C1c1ccccc1F)c1ccc([N+](=O)[O-])cc1 (stereo not drawn) [Compound 81] | 5.5 | 7 |
| Cc1ccccc1N1C(=O)/C(=C/C(=O)c2ccc(F)cc2)C1c1ccc(Br)cc1 (stereo not drawn) [Compound 85] | 17.7 | 14.4 |
| Cc1ccccc1N1C(=O)/C(=C/C(=O)c2ccc([N+](=O)[O-])cc2)C1c1ccc(Br)cc1 (stereo not drawn) [Compound 86] | 6.2 | 5.3 |
| Cc1ccc(CN2C(=O)/C(=C/C(=O)c3ccc([N+](=O)[O-])cc3)C2c2ccccc2)cc1 (stereo not drawn) [Compound 91] | 9.7 | 6.7 |
| COc1ccc(CN2C(=O)/C(=C/C(=O)c3ccc([N+](=O)[O-])cc3)C2c2ccccc2)cc1 (stereo not drawn) [Compound 92] | 7.3 | 6.5 |
| O=C(/C=C1/C(=O)N(Cc2ccc(F)cc2)C1c1ccccc1)c1ccc([N+](=O)[O-])cc1 (stereo not drawn) [Compound 93] | 18.3 | 8.7 |
| COc1ccccc1CN1C(=O)/C(=C/C(=O)c2ccc([N+](=O)[O-])cc2)C1c1ccccc1 (stereo not drawn) [Compound 94] | 8 | 6.9 |
| O=C(/C=C1/C(=O)N(Cc2ccccc2C(F)(F)F)C1c1ccccc1)c1ccc([N+](=O)[O-])cc1 (stereo not drawn) [Compound 95] | 15.4 | 2.5 |
| O=C(/C=C1/C(=O)N(Cc2ccccc2F)C1c1ccccc1)c1ccc([N+](=O)[O-])cc1 (stereo not drawn) [Compound 96] | 3.9 | 3.7 |
| O=C(/C=C1/C(=O)N(Cc2cccc(Cl)c2)C1c1ccccc1)c1ccc([N+](=O)[O-])cc1 (stereo not drawn) [Compound 97] | 16 | 3.2 |
| O=C(/C=C1/C(=O)N(Cc2ccc(Cl)cc2)C1c1ccccc1)c1ccc([N+](=O)[O-])cc1 (stereo not drawn) [Compound 98] | 11.2 | 8.8 |
| O=C(/C=C1/C(=O)N(Cc2ccc(Cl)cc2Cl)C1c1ccccc1)c1ccc([N+](=O)[O-])cc1 (stereo not drawn) [Compound 103] | 18.5 | 6.7 |
| COc1ccc(Cc2nccc3cc(OC)c(OC)cc23)cc1OC [papaverin, reference compound] | > 100 | > 100 |
